Data as given in US20100267733A1, “Synergistic Modulation of Microglial Activation by Nicotine and THC” (UNIVERSITY OF SOUTH FLORIDA, priority 2007, published 2010).
Where two headings read alike, the source gives them in different places.

What was measured:
[1] = tested on: mouse primary microglial cells; experiment: TNF-α secretion by primary microglial cells stimulated with IFN-γ/CD40L or Aβ1-42/CD40L (ELISA); format: cell-based; settings: 24 hr, presence of JWH-015
Procedure: (§1) FIG. 3 is a block graph showing cannabinoid agonist effects on microglial (N9) activation. Cultured microglial cells were incubated with 100 ng/mL LPS (LPS), a combination of IFN-γ (100 U/mL) and CD-40L (2 μg/mL), or a combination of Aβ1-42 (1 μM) and CD-40L (2 μg/mL) and co-treated with JWH-015 (5 μM). Anti-CB2 siRNA was added to cells, abolishing the ability of JWH-015 to reduce LPS-induced cytokine release (n=3, **p<0.05). ELISA analysis of microglial cell release of (A) TNF-α and (B) NO was measured and mean levels per mg of total protein shown.
To examine the functional consequences of CB2 agonist treatment on CD40 expression, mouse primary microglial cells were stimulated with either IFN-γ/CD40L protein (Polazzi, E., A. Contestabile, Reciprocal interactions between microglia and neurons: from survival to neuropathology. Rev. Neurosci., 2002. 13(3): 221-242; Facchinetti, F., et al., Cannabinoids ablate release of TNFalpha in rat microglial cells stimulated with lypopolysaccharide. Glia, 2003. 41(2): 161-168; Walter, L., et al., Nonpsychotropic cannabinoid receptors regulate microglial cell migration. J. Neurosci. 2003. 23(4):1398-405) or Aβ1-42/CD40L protein in the presence or absence of JWH-015 for 24 hr. […] After 3 hr, the amount of phagocytosed Aβ1-42 peptide was determined by quantitative immunoblotting experiments, seen in FIG. 4. […]

[2] = tested on: mouse primary microglial cells; experiment: Microglial phagocytosis of Aβ1-42 / Cy3-Aβ1-42 with CD40L (phagocytosis assay, quantitative immunoblotting); format: cell-based
Procedure: FIG. 4 is a graph showing CB2 stimulation modulates microglial phagocytic function. Mouse primary microglial cells were seeded at 5×10^5 cells/well and treated with 3 μM Cy3™-Aβ1-42 with CD-40L protein (2.5 μg/mL), JWH-015 (5 μM) or both JWH-015 and CD-40L. Aβ mean band densities are represented as ratios to β-actin+/−SD (n=3 for each condition).
To examine the functional consequences of CB2 agonist treatment on CD40 expression, mouse primary microglial cells were stimulated with either IFN-γ/CD40L protein (Polazzi, E., A. Contestabile, Reciprocal interactions between microglia and neurons: from survival to neuropathology. Rev. Neurosci., 2002. 13(3): 221-242; Facchinetti, F., et al., Cannabinoids ablate release of TNFalpha in rat microglial cells stimulated with lypopolysaccharide. Glia, 2003. 41(2): 161-168; Walter, L., et al., Nonpsychotropic cannabinoid receptors regulate microglial cell migration. J. Neurosci. 2003. 23(4):1398-405) or Aβ1-42/CD40L protein in the presence or absence of JWH-015 for 24 hr. […] The canonical microglial function in the CNS is thought to be phagocytosis, given that IFN-γ and CD40 signaling are maturation agents that oppose this phagocytic function. Murine primary microglial cultures were exposed to 3 μM of Aβ1-42 (for immunoblotting) or Cy3™-Aβ1-42 (for phagocytosis assay) in the presence or absence of CD40L protein or CD40L protein/JWH-015. After 3 hr, the amount of phagocytosed Aβ1-42 peptide was determined by quantitative immunoblotting experiments, seen in FIG. 4. […] CD40 ligation decreased microglial phagocytosis compared to controls, while CB2 agonist treatment alone increased phagocytosis compared to control. The presence of JWH-015 rescued microglial phagocytosis of Cy3-Aβ1-42 following CD40L treatment.

N9 cells = experiment: Cannabinoid agonist effects on microglial (N9) activation: TNF-α and NO release; format: cell-based, murine; settings: JWH-015 5 μM
Procedure: as §1
Cannabinoid receptors are expressed on microglia and regulate microglial function. As such, cannabinoid regulation of CD40 activation of microglial was investigated. N9 cells, transfected for 18 hr with specific murine CB2 targeting siRNA (100 nM), were treated for 4 hr with lipopolysaccharid (LPS), a positive control of microglia activation.

[3] = tested on: primary cultured microglial cells; format: cell-based, murine
Procedure: Primary cultured microglial cells (1×10^5 cells/well in 24-well tissue-culture plates) were treated with FITC-tagged Aβ1-42 (300 nM, pre-aggregated for 24 h at 37° C. in complete medium for 60 mm in the absence (control) or presence of nicotine ([…]). In addition, in parallel 24-well tissue-culture plates, microglial cells were incubated at […] with the same treatment above. Cell supernatants and lysates were analyzed for (A) extracellular and (B) cell associated FITC-Aβ using a fluorometer.
Concentration-response and time-course functions for microglial phagocytosis (cellular uptake) of Aβ1-42 peptide were then characterized. […] To fully characterize these effects, primary microglial cells cultured in 24-well tissue-culture plates (1×10^5/well) were treated for 0, 15, 30, 60, 120, and 180 mm with “aged” FITC tagged Aβ1-42 peptide at 300 nM in the presence or absence of nicotine (0.1-10 μM), THC (0.01-10 μM), and their combination. The microglia were then administered nicotine (0.1-10 μM), THC (0.01-10 μM) and a combination. In addition, cannabinoid antagonists, AM 251 (CB1) and AM 281 […] (0.01-10 μM), cannabinoid agonists, ACEA (CB1) and JHW 015 (CB2) (0.01-10 μM), and nicotinic receptor antagonists, mecamylamine (α4β2) and α-bungorotoxin (α 7) (0.01-10 μM) were used in challenge experiments to determine receptor specificity. For fluorescence analysis, the cells were then washed 5 times with ice-cold PBS to remove the extracellular Aβ, and fixed in 4% paraformaldehyde. The cells were mounted and viewed under an Olympus IX71/IX51 fluorscence microscope equipped with a digital camera system. Image Pro software was used to quantify fluorescence signals, using a minimum of 5 random fields. For fluorometric analysis, microglial cells were treated in parallel, rinsing the cells 3 times with medium and the cells lysed. Extracellular and cell associated FITC tagged Aβ was quantified using an MFX 96-well microplate fluorometer (Molecular Devices, MDS, Inc., Sunnyvale, Calif.) with an emission wavelength of 538 nm and an excitation wavelength of 485 nm. A standard curve from 0 nM to 500 nM of FITC-tagged Aβ was run for each plate. The total cellular protein of all groups was quantified using the Bio-Rad protein assay. In addition, in parallel 24-well tissue-culture plates, microglial cells was incubated at 4° C. with FITC-conjugated Aβ with or without various combinations of CD40L as controls for non-specifically incorporated Aβ. Microglial cells was then rinsed 3 times in Aβ-free complete medium, and the media was exchanged with fresh Aβ-free complete medium for 10 min both to allow for removal of non-incorporated Aβ and to promote concentration of the Aβ into phagosomes. The mean fluorescence values for each sample at 37° C. and 4° C. at the indicated time points were determined by fluorometic analysis. Relative fold change values were calculated as: (mean fluorescence value for each sample at 37° C./mean fluorescence value for each sample at 4° C.). In this manner, both extracellular and cell associated FITC-labeled Aβ were quantified.
For phagocytosis experiments, an important concern is the possibility of extracellular association of Aβ with microglial cell membrane. To address this issue, microglial cells was rinsed in Aβ-free complete medium, and media was exchanged with fresh Aβ-medium for 10 mm both to allow for removal of non-specifically incorporated Aβ and to promote concentration of the Aβ into phagosomes. Microglial cells were further cultured in parallel 24-well plates incubated at 4° C. with FITC-tagged Aβ at the same time points in the presence or absence of the appropriate treatment as control for non-specifically incorporated Aβ.

microglial cells [4] = experiment: LPS-induced TNF-α release in cultured microglial cells (ELISA); format: cell-based, murine
Procedure: Cultured microglial cells were plated in 24-well tissue-culture plates (Costar, Cambridge, Mass.), using minimum essential media supplemented with 5% fetal bovine serum, at […] cells per well. […] After pretreatment the cells were stimulated with LPS (100 ng/mL) for 4 hrs. Cell-free supernatants were collected and stored at −70° C. until analysis. The TNF-α level in the supernatants were examined using ELISA kits (R&D Systems) in strict accordance with the manufacturers' protocols. Cell lysates were also prepared and the Bio-Rad protein assay (Hercules, Calif.) was performed to measure total cellular protein. Results are shown as mean pg of TNF-α per mg of total cellular protein (+1-SEM).
Murine primary culture microglial cells were isolated from newborn mouse cerebral cortices under sterile conditions and kept at 4° C. prior to mechanical dissociation. Cells were plated in 75 cm^2 flasks in RPMI medium supplemented with 5% fetal calf serum, 2 mM glutamine, 100 units/mL penicillin, 0.1 μg/mL streptomycin, and 0.05 mM 2-mercaptoethanol and kept for 14 days so only glial cells remain. The microglial cells were isolated by shaking the flasks at 200 rpm. More than 98% of the glial cells remaining stain positive for membrane attack complex-1 (CD-11b, Roche Diagnostics Corp., Indianapolis, Ind.). Additionally, between 85% and 95% of microglial cells usually stain positive for CD45 by fluorescence activated cell sorter (FACS) analysis.
Cell cultured media was collected for measurement of cytokines by commercial cytokine ELISA kits, as described previously. In parallel, cell lysates were prepared for measurement of total cellular protein. Data was represented as ng/mg total cellular protein for each cytokine production.
Cell cultures were treated with nicotinic/THC treatment, as described above. […] Each cytokine was represented as pg of cytokine/mg of total cellular protein. Data was analyzed using ANOVA with post hoc comparison using Bonferroni's or Dunnett's T3 methods as determined by Levene's test for equality of the variances.

Tg2576 transgenic mice = settings: mouse, in vivo; cited from earlier work
microglial cells [5] = tested on: microglial cells

In the case of `CCCn1c(C)c(C(=O)c2cccc3ccccc23)c2ccccc21` [JWH-015], the “secretion of TNF-α induced by Aβ1-42/CD40L” value [1] is reported as “significantly reduced”, the “secretion of TNF-α induced by IFN-γ/CD40L” value [1] is reported as “significantly reduced” and the “microglial phagocytosis compared to control” value ([2]; CB2 agonist treatment alone, 3 μM Aβ1-42, 3 hr) is reported as “increased”. The “microglial phagocytosis of Cy3-Aβ1-42 following CD40L treatment” value ([2]; JWH-015 5 μM with CD40L protein, 3 hr) was “rescued”, the “CD40L-mediated impairment of microglial phagocytosis of Aβ1-42 (band density ratio of Aβ to β-actin)” value ([2]; Western immunoblotting, parallel experiment) was “significant attenuation” and the “Aβ levels (Aβ band densities compared to β-actin)” value ([2]; quantitative immunoblotting, FIG. 4) was “significantly reduced”. For the same molecule, the “Aβ/CD-40L-induced NO production” value (N9 cells; Aβ1-42 1 μM, CD-40L 2 μg/mL, FIG. 3(B)) was “significantly reduced”, the “IFN-γ/CD-40L-induced NO production” value (N9 cells; IFN-γ 100 U/mL, CD-40L 2 μg/mL, FIG. 3(B)) was “significantly reduced” and the “LPS-induced TNF-α release” value (N9 cells; N9 cells, LPS 100 ng/mL 4 hr, FIG. 3(A)) was “reductions”.

With `CCCCCc1cc(O)c2c(c1)OC(C)(C)[C@@H]1CCC(C)=C[C@@H]21` [THC, Δ^9-tetrahydrocannabinol] the “cell-associated FITC-Aβ1-42” value ([3]; THC 5 μM) was “increasing”, the “extracellular FITC-Aβ1-42 remaining in the supernatant” value ([3]; THC 5 μM) was “markedly decreased” and the “receptor mediating the effect on microglial phagocytosis of Aβ” value ([3]; challenge experiments with receptor antagonists/agonists) was “cannabinoid CB2 receptors”.

For `CNC1(C)C2CCC(C2)C1(C)C` (centres unmarked) [mecamylamine], the “prevention of the ACh and nicotine inhibition of LPS-induced TNF-α release” value (microglial cells [4]) was “prevented”.

For `CN1CCCC1c1cccnc1` (centres unmarked) [nicotine], the “reduction in insoluble Aβ1-40 and Aβ1-42 peptides” value (Tg2576 transgenic mice) is listed as roughly 80%, the “cell-associated FITC-Aβ1-42” value [3] is listed as “increasing” and the “extracellular FITC-Aβ1-42 remaining in the supernatant” value [3] is listed as “markedly decreased”. For the same molecule, the “microglial phagocytosis of Aβ1-42 peptide” value [3] was “enhanced”, the “receptor mediating the effect on microglial phagocytosis of Aβ” value [3] was “α7 nicotinic receptors” and the “microglial-released IL-1β” value (microglial cells [5]) was “effectively suppress”. The “microglial-released IL-6” value (microglial cells [5]) was “effectively suppress”, the “microglial-released TNF-α” value (microglial cells [5]) was “effectively suppress” and the “LPS-induced TNF-α release” value (microglial cells [4]) was “inhibited”.

With α-bungarotoxin the “prevention of the ACh and nicotine inhibition of LPS-induced TNF-α release” value (microglial cells [4]) was “prevented”.
